What was measured:
[1] = target: Platelet-derived growth factor receptor alpha (Homo sapiens, UniProt P16234); experiment: Inhibition of PDGFRA
[2] = target: Cyclin-dependent kinase 1 (Homo sapiens, UniProt P06493); experiment: Inhibition of CDC2
[3] = target: Cell division cycle 7-related protein kinase (Homo sapiens, UniProt O00311); experiment: Inhibition of CDC7
[4] = target: Tyrosine-protein kinase Lck (Homo sapiens, UniProt P06239); experiment: Inhibition of LCK
[5] = target: Epidermal growth factor receptor (Homo sapiens, UniProt P00533); experiment: Inhibition of EGFR
Epidermal growth factor receptor, sequence (P00533 whole entry): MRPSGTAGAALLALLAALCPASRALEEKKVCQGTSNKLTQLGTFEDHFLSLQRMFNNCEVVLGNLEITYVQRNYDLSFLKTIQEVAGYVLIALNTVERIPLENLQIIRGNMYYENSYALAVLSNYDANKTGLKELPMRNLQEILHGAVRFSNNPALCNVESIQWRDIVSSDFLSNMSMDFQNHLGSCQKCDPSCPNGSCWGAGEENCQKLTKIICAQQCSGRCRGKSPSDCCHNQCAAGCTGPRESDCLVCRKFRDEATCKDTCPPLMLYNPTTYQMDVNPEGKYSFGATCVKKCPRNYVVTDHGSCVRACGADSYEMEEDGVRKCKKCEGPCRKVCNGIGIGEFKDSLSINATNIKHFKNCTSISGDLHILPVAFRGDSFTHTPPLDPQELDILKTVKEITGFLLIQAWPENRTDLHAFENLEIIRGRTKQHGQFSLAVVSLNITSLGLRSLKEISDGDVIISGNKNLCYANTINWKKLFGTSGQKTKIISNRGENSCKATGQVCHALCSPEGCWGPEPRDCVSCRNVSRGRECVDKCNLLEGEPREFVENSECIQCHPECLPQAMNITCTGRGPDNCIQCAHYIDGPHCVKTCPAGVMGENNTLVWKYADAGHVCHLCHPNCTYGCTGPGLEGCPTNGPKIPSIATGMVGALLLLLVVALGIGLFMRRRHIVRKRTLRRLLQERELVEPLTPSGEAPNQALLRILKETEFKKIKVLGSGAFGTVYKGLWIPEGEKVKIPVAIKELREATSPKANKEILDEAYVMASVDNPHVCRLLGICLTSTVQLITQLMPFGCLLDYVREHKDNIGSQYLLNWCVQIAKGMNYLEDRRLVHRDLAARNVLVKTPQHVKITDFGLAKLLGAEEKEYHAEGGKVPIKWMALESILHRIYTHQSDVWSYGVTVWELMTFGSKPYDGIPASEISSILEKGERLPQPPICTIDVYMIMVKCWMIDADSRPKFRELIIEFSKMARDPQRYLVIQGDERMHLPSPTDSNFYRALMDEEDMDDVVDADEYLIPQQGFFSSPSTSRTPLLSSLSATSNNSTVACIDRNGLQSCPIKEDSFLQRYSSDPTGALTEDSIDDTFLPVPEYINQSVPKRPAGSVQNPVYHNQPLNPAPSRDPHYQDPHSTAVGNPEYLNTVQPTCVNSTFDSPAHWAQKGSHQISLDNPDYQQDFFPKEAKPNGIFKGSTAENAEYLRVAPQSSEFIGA

Cyclin-dependent kinase 1, sequence (P06493 whole entry): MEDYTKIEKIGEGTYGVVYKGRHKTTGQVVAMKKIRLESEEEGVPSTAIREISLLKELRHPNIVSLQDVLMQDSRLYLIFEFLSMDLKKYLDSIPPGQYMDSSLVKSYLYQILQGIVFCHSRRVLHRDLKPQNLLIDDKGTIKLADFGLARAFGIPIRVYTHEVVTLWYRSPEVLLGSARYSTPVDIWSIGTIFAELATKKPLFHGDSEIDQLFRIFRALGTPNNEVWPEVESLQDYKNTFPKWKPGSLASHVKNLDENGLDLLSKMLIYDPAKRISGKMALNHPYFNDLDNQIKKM
Platelet-derived growth factor receptor alpha, sequence (P16234 whole entry): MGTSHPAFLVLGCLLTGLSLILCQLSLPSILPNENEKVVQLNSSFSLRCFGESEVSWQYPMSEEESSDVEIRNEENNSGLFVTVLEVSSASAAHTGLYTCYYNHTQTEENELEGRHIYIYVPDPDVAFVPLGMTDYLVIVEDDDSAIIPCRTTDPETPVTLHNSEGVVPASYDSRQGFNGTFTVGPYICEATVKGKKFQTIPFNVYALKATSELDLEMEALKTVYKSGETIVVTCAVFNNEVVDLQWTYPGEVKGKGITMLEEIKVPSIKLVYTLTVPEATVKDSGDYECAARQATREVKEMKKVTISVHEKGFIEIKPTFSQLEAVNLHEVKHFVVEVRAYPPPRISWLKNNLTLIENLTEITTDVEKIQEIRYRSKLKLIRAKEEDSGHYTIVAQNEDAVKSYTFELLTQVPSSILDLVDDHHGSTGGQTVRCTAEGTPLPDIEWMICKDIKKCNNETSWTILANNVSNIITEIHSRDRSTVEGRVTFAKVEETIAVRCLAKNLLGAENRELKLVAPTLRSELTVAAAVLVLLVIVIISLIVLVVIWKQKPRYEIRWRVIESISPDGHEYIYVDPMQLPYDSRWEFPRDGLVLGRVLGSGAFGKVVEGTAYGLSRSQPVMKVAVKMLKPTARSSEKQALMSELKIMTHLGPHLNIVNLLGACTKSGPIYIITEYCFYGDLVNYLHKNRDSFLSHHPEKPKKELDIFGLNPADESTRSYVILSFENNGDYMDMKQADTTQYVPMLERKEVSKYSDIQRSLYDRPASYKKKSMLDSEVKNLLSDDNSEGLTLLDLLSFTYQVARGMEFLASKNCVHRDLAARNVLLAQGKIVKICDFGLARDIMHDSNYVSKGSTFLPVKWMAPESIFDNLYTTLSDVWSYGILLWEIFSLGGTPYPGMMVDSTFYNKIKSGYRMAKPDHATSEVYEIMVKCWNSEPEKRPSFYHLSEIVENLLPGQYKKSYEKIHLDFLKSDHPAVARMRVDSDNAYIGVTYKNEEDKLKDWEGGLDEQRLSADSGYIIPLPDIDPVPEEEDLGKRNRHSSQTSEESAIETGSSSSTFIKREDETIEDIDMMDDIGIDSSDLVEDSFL
Cell division cycle 7-related protein kinase, sequence (O00311 whole entry): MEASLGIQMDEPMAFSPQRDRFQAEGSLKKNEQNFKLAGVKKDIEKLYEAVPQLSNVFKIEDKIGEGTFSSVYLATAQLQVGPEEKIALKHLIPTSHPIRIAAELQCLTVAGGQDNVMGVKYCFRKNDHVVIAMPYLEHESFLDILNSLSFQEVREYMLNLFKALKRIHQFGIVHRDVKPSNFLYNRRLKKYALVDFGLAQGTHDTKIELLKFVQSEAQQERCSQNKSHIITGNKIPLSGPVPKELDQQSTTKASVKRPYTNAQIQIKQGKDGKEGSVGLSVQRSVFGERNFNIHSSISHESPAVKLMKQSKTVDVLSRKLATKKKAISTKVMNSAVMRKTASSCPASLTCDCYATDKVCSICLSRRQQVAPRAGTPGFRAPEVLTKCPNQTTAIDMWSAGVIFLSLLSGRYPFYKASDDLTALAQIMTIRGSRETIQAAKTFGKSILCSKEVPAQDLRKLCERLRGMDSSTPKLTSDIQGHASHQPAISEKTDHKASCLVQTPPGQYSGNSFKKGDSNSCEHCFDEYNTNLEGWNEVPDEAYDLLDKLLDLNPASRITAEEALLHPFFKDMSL
Tyrosine-protein kinase Lck, sequence (P06239 whole entry): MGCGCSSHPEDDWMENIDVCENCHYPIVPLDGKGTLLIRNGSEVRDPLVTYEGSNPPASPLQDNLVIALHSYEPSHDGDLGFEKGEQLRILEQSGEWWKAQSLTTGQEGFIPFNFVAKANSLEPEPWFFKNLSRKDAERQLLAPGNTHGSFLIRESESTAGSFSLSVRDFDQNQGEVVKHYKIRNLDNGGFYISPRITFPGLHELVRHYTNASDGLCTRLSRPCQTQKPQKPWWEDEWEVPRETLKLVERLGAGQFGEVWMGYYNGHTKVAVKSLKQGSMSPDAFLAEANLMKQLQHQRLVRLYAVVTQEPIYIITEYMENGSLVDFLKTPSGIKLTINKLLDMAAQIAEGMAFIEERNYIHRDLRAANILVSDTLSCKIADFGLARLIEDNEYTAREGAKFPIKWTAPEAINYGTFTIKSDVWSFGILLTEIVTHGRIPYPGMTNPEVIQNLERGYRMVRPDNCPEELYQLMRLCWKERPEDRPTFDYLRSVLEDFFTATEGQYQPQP

Ki [1] [µM] | Ki [2] [µM] | Compound | further results
> 10 | – | CC(C)(C(N)=O)n1cc(-c2cnc(N)c3c(-c4ccc(NC(=O)Nc5cccc(F)c5)cc4)csc23)cn1 | –
> 10 | – | Cc1cccc(NC(=O)Nc2ccc(-c3csc4c(C#CC(C)(C)N)cnc(N)c34)cc2)c1 | –
– | > 10 | O=C(Nc1n[nH]c2ccc(-c3cn(Cc4ccccc4)nn3)cc12)c1cccc(Cl)c1 | –
> 10 | – | C[C@@H](O)Cn1cc(-c2cnc(N)c3c(-c4ccc(NC(=O)Nc5cccc(F)c5)cc4)csc23)cn1 | –
– | 0.0398 | O[C@H]1CC[C@H](Nc2nc(Cl)cc(-c3c[nH]c4ncccc34)n2)CC1 | Ki [3]: 0.158 nM
– | > 10 | CN(C)[C@H]1CC[C@H](Nc2nc(Cl)cc(-c3c[nH]c4ncccc34)n2)CC1 | Ki [3]: 0.316 nM
– | – | O=C(Cc1ccccc1)Nc1cc(-c2nc3sccn3c2-c2ccnc(Nc3ccc(N4CCOCC4)cc3)n2)ccc1Cl | Ki [4]: 79.4 nM; Ki [5]: > 10 µM
